Measurements taken from ChEMBL document CHEMBL5113442, “Discovery of agonist-antagonist pairs for the modulation of Ca [2]+ and voltage-gated K+ channels of large conductance that contain beta1 subunits” (Bioorg Med Chem, 2022).
Active and inactive are the calls of the source. The calls are words filed in the database; no cut-off is given here.

Assays:
Assay type in all cases: cell-based
CHO [1] = experiment: Agonist activity at rat BK calcium channel alphabeta1 expressed in CHO cells assessed as maximal current amplitude by automated whole cell patch clamp analysis; conditions: filed as agonist
CHO [2] = experiment: Agonist activity at rat BK calcium channel alphabeta1 expressed in CHO cells assessed as fold increase in current amplitude at 0.0001 to 33.3 uM by automated whole cell patch clamp analysis; conditions: filed as agonist, dose 0.0001-33.3 µM
[3] = Agonist activity at rat BK calcium channel alphabeta1 expressed in CHO cells assessed as increase in current amplitude by automated whole cell patch clamp analysis
CHO [4] = experiment: Antagonist activity at rat BK calcium channel alphabeta1 expressed in CHO cells assessed as fold change in current amplitude at 1 uM in presence of compound 1 by automated whole cell patch clamp analysis; conditions: filed as antagonist
CHO [5] = experiment: Antagonist activity at rat BK calcium channel alphabeta1 expressed in CHO cells assessed as decrease in current amplitude at 0.1 to 1 uM in presence of compound 1 by automated whole cell patch clamp analysis; conditions: filed as antagonist, dose 0.1-1 µM
CHO [6] = experiment: Antagonist activity at rat BK calcium channel alphabeta1 expressed in CHO cells assessed as fold change in current amplitude at 3 uM in presence of compound 1 by automated whole cell patch clamp analysis; conditions: filed as antagonist

| Compound | ECmax (CHO [1]) | fold change (FC) (CHO [2]) | also measured |
| --- | --- | --- | --- |
| CCOC(=O)c1c(NC(=O)[C@H](C)Sc2nnc(CNC(=O)c3ccc(C)c([N+](=O)[O-])c3)n2CCc2ccccc2)sc2c1CCC2 | 0.14 µM | 1.84 |  |
| O=C(Nc1ccccc1)c1nnc(/C(Cl)=C\c2cccc([N+](=O)[O-])c2)s1 | 0.44 µM | 4.05 |  |
| C/C(=C/C(=O)C[C@H](C)C(=O)O)[C@@H]1CC(=O)[C@@]2(C)C3=C(C(=O)C[C@]12C)[C@@]1(C)CCC(=O)C(C)(C)[C@@H]1C[C@@H]3O | 0.78 µM |  | EC50 [3]: 20 nM |
| O=C(Nc1ccc(F)cc1)c1nnc(/C(Cl)=C\c2cccc([N+](=O)[O-])c2)s1 | 0.72 µM |  | EC50 [3]: 5 nM |
| C/C(=N\Nc1ccc([N+](=O)[O-])cc1S(=O)(=O)Nc1ccccc1Cl)c1ccc2ccccc2c1O | 0.38 µM | 4.05 |  |
| O=C1NC(=O)N(c2ccc(F)cc2)C(=O)/C1=C/c1cc(Br)ccc1OCc1cccc([N+](=O)[O-])c1 | 1.05 µM |  | EC50 [3]: 20 nM |
| COc1cc(/C=C2/C(=O)NC(=O)N(c3ccccc3)C2=O)cc(Br)c1OCc1ccc([N+](=O)[O-])cc1 | 0.35 µM | 4.07 |  |
| CC[C@@H](C)NS(=O)(=O)c1cc([N+](=O)[O-])ccc1Oc1c(C)c(C(=O)NC[C@@H]2CCCO2)nn1-c1cccc(C)c1C | 0.42 µM |  | EC50 [3]: 2 nM |
| COc1ccc([N+](=O)[O-])cc1/N=c1\ssc2c1-c1cc(C)c(C)cc1NC2(C)C |  | 3.86 |  |
| O=C(NCc1ccc(F)cc1)c1nnc(/C(Cl)=C\c2cccc([N+](=O)[O-])c2)s1 |  | 1.73 |  |
| Cc1ccc(C(=O)NN2C(=O)/C(=C\c3ccc(OC(=O)c4cccc([N+](=O)[O-])c4)cc3)SC2=S)cc1 |  | 2.47 |  |
| COc1ccc(C(=O)NC(=S)Nc2ccc(O)c(-c3nc4ccc(C)cc4o3)c2)cc1[N+](=O)[O-] | 0.21 µM | 2.47 |  |
| O=C(Cc1ccc([N+](=O)[O-])cc1)NC[C@H](c1ccccc1Cl)c1c[nH]c2ccccc12 |  | 2.51 |  |
| Cc1n[nH]c(C)c1CCc1nc2c3ccccc3nc(SCc3ccc([N+](=O)[O-])cc3)n2n1 | 0.25 µM | 1.23 | fold change (FC) (CHO [4]): 2.2; Activity (CHO [5]): Active; fold change (FC) (CHO [6]): 2 |
| COc1ccc(NC(=O)/C(=C\c2cccc([N+](=O)[O-])c2)NC(=O)c2ccc(F)cc2Cl)cc1OC | 0.15 µM | 1.94 |  |
